Assay results from patent US10463695B2, “Methods and compositions for use in the prevention, treatment and/or alleviation of cancer” (priority 2016, dated 2019).
Like-named read-outs stand apart in the source and are kept apart here.

What was measured:
[1] = Whole body autoradiography of pregnant mice, cadmium isotope 109Cd; assay type: in vivo; conditions: for Passage of Cd through the placenta: pregnant mice, intravenous 109CdCl2, about 18th day after conception, autoradiography
Description: (§1) The present inventor commissioned studies where the function of the placenta was investigated using radioactive isotopes of cadmium and zinc. Pregnant female mice were injected intravenously with 8 μc of ^109CdCl2 obtained from Philips Ltd., Eindhoven, Holland. The injection of isotope was made into the tail vein according to standard practice. The mice were injected so that the day of sacrifice coincided approximately with the 18th day after conception, determined by the presence of a vaginal plug after mating. The mice were sacrificed under ether anesthesia by immersion in a mixture of acetone and liquid carbon dioxide (about −80 C). The mice were then sagittally sectioned in a cold room at −10 C according to standard practice, and the sections obtained were affixed to cellulose tape.
(§2) Each section was then apposed to X-ray film together with an isotope reference standard. The sections and films were kept at −10 C until exposure was complete. The determination of the order of cadmium and zinc concentration in different organs was made through densitometric comparison of the autoradiographic exposure caused by the organs, compared to the reference standard.

[2] = cited from earlier work
[3] = Whole body autoradiography of pregnant mice, zinc isotope 65Zn; assay type: in vivo
Description: as §1, §2

SMILES | Passage of Cd through the placenta [1] | Passage of Cd through the placenta ([1]; listed as 109Cd) | Tissue enrichment of 109Cd ([1]; pregnant mouse, autoradiograph, FIG. 3) | Concentration at which acute toxicity is observed ([2]; cadmium in blood) | Threshold at which medical treatment needs to be initiated ([2]; cadmium, information supplied by VITA Laboratorio) | Passage of Zn through the placenta [3] | Passage of Zn through the placenta ([3]; listed as 65Zn)
[Cd] [Cd, cadmium] | did not pass the placental barrier | no cadmium has passed through the placenta into the fetus | enriched in the liver and kidney, and to some extent in placental tissue | around 50 μng/ml | 50 nmol/L | – | –
[Zn] [Zn, zinc] | – | – | – | – | – | passed through the placenta and was enriched in the fetal tissue | capable of passing through the placenta
